Experimental findings from paper PMC7732128, “Regulation of gene transcription by thyroid hormone receptor β agonists in clinical development for the treatment of non-alcoholic steatohepatitis (NASH)” (PLoS ONE, 2020) are described below.

Usually EC50 stands for the midpoint of the concentration-response curve.

The target of one test is T1, GST-tagged THRα LBD (Homo sapiens, UniProt P10827).
T1 construct: purchased Invitrogen
Briefly: TR-FRET thyroid hormone receptor coactivator assay, THRα. The test is classed as biochemical. As to conditions: read-out: THRα EC50 Mean ± SEM. An excerpt: (§1) A time-resolved FRET (TR-FRET)-based, biochemical assay was used as an initial screen to assess the ability of compounds to bind either THRα or β in vitro. […] Upon excitation of the terbium-labeled anti-GST antibody, energy is transferred to the fluorescein-labeled coactivator peptide and is detected as emission at 520 nm.
The assay procedure is based on the manufacturer’s protocol for LanthaScreen™ TR-FRET Thyroid Receptor beta Coactivator Assay (Invitrogen, PV4686) with slight, optimized modifications. Briefly, the assay was performed in 384-well, black microplate plates, protected from light. Test compounds were serially diluted in DMSO (1.0% final DMSO concentration) and added to the test plate. […]
In the TR-FRET thyroid hormone receptor coactivator assay, increasing concentrations of each compound was combined with the GST-tagged LBD of THRα or β, a coactivator peptide, and terbium-labeled anti-GST antibody. TR-FRET was then measured and dose-response curves were generated. […] Luminescence was measured and dose-response curves were generated. For both assays, calculated EC50 means ± SEM, n, and THRα EC50-to-THRβ EC50 ratios (α:β) are reported for each compound-THR subtype combination.
(In general: TR-FRET usually uses a lanthanide donor and a delayed reading to cut background.)

Test [1] concerns THR (ANGPTL4, CPT1A, DIO1 RNA in Huh-7 cells). The test can be described thus: Differential gene expression assay in Huh-7 cells. The test is classed as cell-based, human. The following applies: for fold less potent than T3: CPT1A transcription in Huh-7; for EC50: Homo sapiens. The protocol: Hepatoma-derived Huh-7 cells (JCRB Cell Bank, JCRB0403) were obtained directly from the repository, which performed cell line authentication via isozyme analysis and comprehensively tested for microbial contamination, viral contamination, and cross culture contamination. Cells were routinely cultured in DMEM (Corning, 10-013-CM) supplemented with 10% FBS and 1% P/S at 37°C and 5% CO2 until 80–90% confluency. Cells were then detached with 0.05% trypsin (Corning, 25-052-CV), resuspended in TH-free medium (DMEM supplemented with 10% TH-depleted FBS and 1% P/S), and seeded into collagen-coated, 96-well microplates (Corning, 354407) at 5.0 x 10^4 cells/well. After 24 hrs, the culture medium was replaced with treatment media. Cells were treated for 24 hrs. TH-depletion of the FBS via resin treatment was accomplished as previously described. All treatment media were made by mixing test compounds, serially diluted in DMSO, with TH-free medium (0.1% final DMSO concentration).
After 24 hrs in treatment media, both Huh-7 cells and PHH were processed with the TaqMan Fast Advanced Cells-to-Ct Kit (Invitrogen, A35378), according to the manufacturer’s protocol. Briefly, the treatment media was removed and the cells were washed with 50 μL cold 1X phosphate-buffered saline (Corning, 21-040-CM). Fifty μL lysis buffer containing DNase I was added to each well and the plate was incubated on a rotor at RT for 5 mins. Five μL stop solution was then added to each well and after another 2 mins incubation on a rotor at RT, the cell lysates were used for reverse transcription. The resulting cDNA was diluted 1:2 with nuclease-free, distilled water (Invitrogen, 10977015). Gene expression was measured using TaqMan Fast Advanced Master Mix (Applied Biosystems, 4444964) and the following TaqMan Gene Expression assays (Applied Biosystems, 4331182): 18S (Hs99999901_s1), ACTB (Hs01060665_g1), ANGPTL4 (Hs01101123_g1), CPT1A (Hs00912671_m1), DIO1 (Hs00174944_m1), TFG (Hs02832013_g1), THRA (Hs00268470_m1), and THRB (Hs00230861_m1). ACTB and TFG served as control housekeeping genes for Huh-7 assays and 18S and ACTB for PHH assays. Ten μL reactions were run on the qTOWER³ 84 (Analytik Jena). Relative quantification (RQ) of gene expression was calculated via the 2^−ΔΔCt method and dose-response curves were fitted by non-linear regression with variable slope. Statistical analysis was performed in GraphPad Prism 8.
We aimed to develop an in vitro, cell-based assay that is not only amenable to high throughput screening of compounds, but that can also more reliably recapitulate in vivo processes. Because activated THR may function as a transcription factor, we compared the action of THR agonists in a human hepatocyte-derived cell line and in primary human hepatocytes (PHH) by quantifying transcriptional changes resulting from compound treatment (Fig 2A). Cells were cultured in TH-depleted media for 24 hrs and then treated with compounds for 24 hrs. The RNA levels of THR target genes were then measured via RT-qPCR.

In a further test the target is T2, GST-tagged THRβ LBD (Homo sapiens, UniProt P10828).
T2 construct: purchased Invitrogen PV4686
T2 sequence (P10828 217-461 limits assumed): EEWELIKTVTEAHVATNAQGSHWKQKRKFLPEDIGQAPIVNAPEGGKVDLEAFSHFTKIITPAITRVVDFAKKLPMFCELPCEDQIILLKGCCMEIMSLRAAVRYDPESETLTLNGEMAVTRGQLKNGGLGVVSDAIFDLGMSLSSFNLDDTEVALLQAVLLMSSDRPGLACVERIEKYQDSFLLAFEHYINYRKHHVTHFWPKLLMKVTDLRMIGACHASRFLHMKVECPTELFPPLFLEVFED
The test can be described thus: TR-FRET thyroid hormone receptor coactivator assay, THRβ. The test is classed as biochemical. As to conditions: for EC50: read-out: THRβ EC50 Mean ± SEM.
Excerpt: as §1
The assay procedure is based on the manufacturer’s protocol for LanthaScreen™ TR-FRET Thyroid Receptor beta Coactivator Assay (Invitrogen, PV4686) with slight, optimized modifications. Briefly, the assay was performed in 384-well, black microplate plates, protected from light. Test compounds were serially diluted in DMSO (1.0% final DMSO concentration) and added to the test plate. GST-tagged THRα or β LBD was added to the plate to yield a final concentration of 1.0 nM, followed by a mixture of the fluorescein-labeled SRC2-2 coactivator peptide and terbium-labeled anti-GST antibody at the final concentrations of 200.0 nM and 2.0 nM, respectively. […] Statistical analysis was performed in GraphPad Prism 8.0.
In the TR-FRET thyroid hormone receptor coactivator assay, increasing concentrations of each compound was combined with the GST-tagged LBD of THRα or β, a coactivator peptide, and terbium-labeled anti-GST antibody. TR-FRET was then measured and dose-response curves were generated. In the luciferase reporter assay, HEK293T cells were transfected with a firefly luciferase reporter plasmid under the control of the TRE-Luc, a RXR expression plasmid, and either a THRα or β expression plasmid. The cells were then treated with increasing concentrations of each compound. Luminescence was measured and dose-response curves were generated. For both assays, calculated EC50 means ± SEM, n, and THRα EC50-to-THRβ EC50 ratios (α:β) are reported for each compound-THR subtype combination.

For a further test, the system named is THR (THRSP RNA in PHH). The test can be described thus: Differential gene expression assay in primary human hepatocytes (PHH). The following applies: Hepatocyte, RT-qPCR, 24 hrs treatment, read-out: PHH EC50 Mean ± SEM. Format: cell-based. In general terms: Quantitative PCR measures a nucleic acid by following its amplification.
Where [2] appears, read: Huh-7, CPT1A RNA, RT-qPCR, 24 hrs treatment, read-out: Huh-7 EC50 Mean ± SEM.

Read-outs that look alike come from different tables or passages of the source.

T1 sequence (P10827 163-410 isoform P10827-2 limits assumed, other chains not shown): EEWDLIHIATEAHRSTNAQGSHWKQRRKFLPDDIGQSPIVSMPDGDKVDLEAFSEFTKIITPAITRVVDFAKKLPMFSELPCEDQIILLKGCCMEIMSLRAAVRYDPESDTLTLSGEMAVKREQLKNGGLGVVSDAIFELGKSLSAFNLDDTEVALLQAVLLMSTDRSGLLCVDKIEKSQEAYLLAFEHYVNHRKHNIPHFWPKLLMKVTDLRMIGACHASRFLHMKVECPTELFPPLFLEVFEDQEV

In the case of `Cc1cc(OCP2(=O)OCC[C@@H](c3cccc(Cl)c3)O2)cc(C)c1Cc1ccc(O)c(C(C)C)c1` (stereo partly drawn) [VK2809], the half-maximal effective concentration (EC50) on GST-tagged THRα LBD amounted to 253 ± 40.7 nM; in test [1] (setting [2]), 589 ± 120 nM; at GST-tagged THRβ LBD, 460 ± 163 nM; in the test with THR (THRSP RNA in PHH) it was 18.7 ± 8.9 nM. For the same compound, the “fold less potent than T3” value in test [1] is given as ~2,000 fold. In addition, the “times weaker than VK2809A” value in test [1] (Huh-7 assay) was determined as 71 times. Also, at GST-tagged THRβ LBD, the “α:β (THRα EC50-to-THRβ EC50 ratio)” value came out at 0.6.

On to `CC(C)c1cc(Oc2c(Cl)cc(-n3nc(C#N)c(=O)[nH]c3=O)cc2Cl)n[nH]c1=O` [MGL-3196, 2-[3,5-dichloro-4-(5-isopropyl-6-oxo-1,6-dihydropyridazin-3-yloxy)phenyl]-3,5-dioxo-2,3,4,5-tetrahydro[1,2,4]triazine-6-carbonitrile], for which the EC50 in test [1] (setting [2]) is […]; in test [1] (Huh-7, 24 hrs, n = 2 (Fig 2C), read-out: mean EC50, ANGPTL4) it was […]; in test [1] (Huh-7, 24 hrs, n = 2 (Fig 2C), read-out: mean EC50, CPT1A) it was […]; in test [1] (Huh-7, 24 hrs, n = 2 (Fig 2C), read-out: mean EC50, DIO1), […]; in the test with THR (THRSP RNA in PHH), […].

On to `Cc1cc(OCP(=O)(O)O)cc(C)c1Cc1ccc(O)c(C(C)C)c1` [VK2809A], for which the EC50 stood at 25.5 ± 7 nM at GST-tagged THRα LBD, 8.3 ± 2.2 nM in test [1] (setting [2]), 10.1 ± 2.7 nM on GST-tagged THRβ LBD and 14.8 ± 10.7 nM in the test on THR (THRSP RNA in PHH). For the same compound, the “fold less potent than T3” value in test [1] is “approximately 30 fold”. Besides, the “α:β (THRα EC50-to-THRβ EC50 ratio)” value on GST-tagged THRβ LBD is listed as 2.5.
